# Tests used:
# [1] = tested on: soybean; experiment: Upland soil application test (Test 2), crop injury; assay type: in vivo; settings: 30 g ai/a, soil spray before emergence, 30 days later
# Summary of the method: (§1)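 Damage was graded 30 days after treatment by comparing air-dried plant weight with that of plants in untreated pots. Test compound, given as a diluted wettable powder, had been sprayed on the soil surface one day after sowing, before any weeds emerged.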
# [2] = tested on: peanut; experiment: Upland soil application test (Test 2), crop injury; assay type: in vivo; settings: 30 g ai/a, soil spray before emergence, 30 days later
# Summary of the method: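 Pre-emergence soil spray, greenhouse. Weed seeds mixed through upland soil; crops sown alongside. Day 1 post-sowing: wettable-powder formulation, water-diluted, applied at 10 l/are by pressure ULV sprayer. Read at 30 days as air-dried weight vs untreated pots, scored on a graded damage scale.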
# [3] = tested on: cotton; experiment: Upland soil application test (Test 2), crop injury; assay type: in vivo; settings: 30 g ai/a, soil spray before emergence, 30 days later
# Summary of the method: as §1
# [4] = tested on: bulrush; experiment: Treatment of soil under submerged condition, post-emergence (Test 5); assay type: in vivo; settings: 30 g ai/a granule, 30 days later
# Summary of the method: (§2)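 Weeds seeded or tubers planted in flooded soil in Wagner pots, with 2–3-leaf rice seedlings transplanted in pairs and grown in greenhouse. At barnyardgrass two-leaf stage, pots received a granule of the test composition at a predetermined amount. Weed emergence and rice injury were scored 30 days later.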
# [5] = tested on: Sagittaria pygmaea; experiment: as above; assay type: in vivo; settings: 30 g ai/a granule, 30 days later
# Summary of the method: as §2
# [6] = tested on: barnyardgrass; experiment: as above; assay type: in vivo; settings: 30 g ai/a granule, post-emergence (barnyardgrass two-leaf stage), 30 days later
# Summary of the method: as §2
# [7] = tested on: soybean; experiment: Upland foliar application test (Test 3), crop injury; assay type: in vivo; settings: 30 g ai/a, foliar spray at 2-3 leaves, 30th day
# Summary of the method: (§3)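 Foliar post-emergence spray: diluted emulsifiable formulation applied at 5 l/are by pressure ULV sprayer once plants in upland-soil greenhouse pots reached 2-3 leaves. Degree of weed damage and crop injury rated on day 30 post-application.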
# [8] = tested on: peanut; experiment: as above; assay type: in vivo; settings: 30 g ai/a, foliar spray at 2-3 leaves, 30th day
# Summary of the method: as §3
# [9] = tested on: cotton; experiment: as above; assay type: in vivo; settings: 30 g ai/a, foliar spray at 2-3 leaves, 30th day
# Summary of the method: as §3
# [10] = tested on: common lambsquarters; experiment: Upland soil application test (Test 2); assay type: in vivo; settings: 30 g ai/a, soil spray before emergence, 30 days later
# Summary of the method: (§4)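 Weed damage was rated at 30 days by comparing air-dried plant weights against untreated controls. Compound had been applied as a water-diluted wettable powder (10 l per are), sprayed on the soil surface one day after sowing, before emergence, with weed seed incorporated in upland field soil.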
# [11] = tested on: barnyardgrass; experiment: Upland soil application test (Test 2); assay type: in vivo; settings: 30 g ai/a, soil spray before emergence, 30 days later
# Summary of the method: as §4
# [12] = tested on: large crabgrass; experiment: Upland soil application test (Test 2); assay type: in vivo; settings: 30 g ai/a, soil spray before emergence, 30 days later
# Summary of the method: as §4
# [13] = tested on: redroot pigweed; experiment: Upland soil application test (Test 2); assay type: in vivo; settings: 30 g ai/a, soil spray before emergence, 30 days later
# Summary of the method: as §4
# [14] = tested on: narrowleaf waterplantain; experiment: Petri dish test (Test 6); assay type: in vivo; settings: 336 h; seeds on filter paper, 25° C., 14 days; read-out: I80 (ppm)
# Summary of the method: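 Narrowleaf waterplantain seeds placed on filter paper pre-treated with compound in acetone (solvent air-dried) in 9 cm Petri dishes with 10 ml water, grown at 25° C in light. Growth was scored after fourteen days as degree of damage against an untreated group.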
# [15] = tested on: ALS (acetolactate syntase); experiment: ALS enzyme assay (Test 1); assay type: biochemical, pea; settings: 1,000 ppm (0.5 mg/0.5 ml)
# Summary of the method: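 Partially purified ALS from dark-grown pea and barnyardgrass seedlings incubated 1 h at 30° C with pyruvate, TPP, MgCl2 and FAD. Compounds tested at 1,000 ppm (0.5 mg/0.5 ml). Acetoin formed detected colorimetrically at 525 nm via creatine/α-naphthol, relative to blank and acid-stopped controls.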
# [16] = tested on: rice; experiment: Treatment of soil under submerged condition, post-emergence (Test 5), injury; assay type: in vivo; settings: 30 g ai/a granule, 30 days later
# Summary of the method: as §2
SMILES,Injury Soybean [1],Injury Peanut [2],Injury Cotton [3],Herbicidal effects Bulrush [4],Herbicidal effects Sagittaria Pygmaea [5],Herbicidal effects Barnyardgrass [6],Injury Soybean [7],Injury Peanut [8],Injury Cotton [9],Herbicidal effects Common lambsquarters [10],Herbicidal effects Barnyardgrass [11],Herbicidal effects Large crabgrass [12],Herbicidal effects Redroot pigweed [13],IC80 [14] [µg/mL],Inhibitory activity (%) Pea [15] [%],Injury Rice [16]
COc1cc(OC)nc(Oc2ccccc2C=NOCC=Cc2ccc(Cl)cc2Cl)n1 [compound 30],0 (91-100 (No damages)),0 (91-100 (No damages)),0 (91-100 (No damages)),4 (6-10 (Severe damages)),4 (6-10 (Severe damages)),5 (0-5 (Death)),0 (91-100 (No damages)),0 (91-100 (No damages)),0 (91-100 (No damages)),4 (6-10 (Severe damages)),5 (0-5 (Death)),5 (0-5 (Death)),5 (0-5 (Death)),2,6,0 (91-100 (No damages))
COc1cc(OC)nc(Oc2ccccc2C=NOCC=Cc2ccc(Cl)c(Cl)c2)n1 [compound 31],0 (91-100 (No damages)),0 (91-100 (No damages)),0 (91-100 (No damages)),4 (6-10 (Severe damages)),4 (6-10 (Severe damages)),5 (0-5 (Death)),0 (91-100 (No damages)),0 (91-100 (No damages)),0 (91-100 (No damages)),3 (11-40 (Medium damages)),4 (6-10 (Severe damages)),4 (6-10 (Severe damages)),3 (11-40 (Medium damages)),2,0,0 (91-100 (No damages))
COc1cc(OC)nc(Oc2ccccc2C=NOCC=Cc2ccccc2C(F)(F)F)n1 [compound 32],0 (91-100 (No damages)),0 (91-100 (No damages)),0 (91-100 (No damages)),4 (6-10 (Severe damages)),4 (6-10 (Severe damages)),5 (0-5 (Death)),0 (91-100 (No damages)),0 (91-100 (No damages)),0 (91-100 (No damages)),4 (6-10 (Severe damages)),5 (0-5 (Death)),5 (0-5 (Death)),5 (0-5 (Death)),4,0,1 (71-90 (Slight damages))
COc1cc(OC)nc(Oc2ccccc2C=NOCC=Cc2c(F)cccc2F)n1 [compound 33],0 (91-100 (No damages)),0 (91-100 (No damages)),0 (91-100 (No damages)),5 (0-5 (Death)),4 (6-10 (Severe damages)),5 (0-5 (Death)),0 (91-100 (No damages)),0 (91-100 (No damages)),0 (91-100 (No damages)),4 (6-10 (Severe damages)),5 (0-5 (Death)),5 (0-5 (Death)),4 (6-10 (Severe damages)),8,0,1 (71-90 (Slight damages))
COc1cc(OC)nc(Oc2ccccc2C=NOCC=Cc2ccc(C(F)(F)F)cc2)n1 [compound 35],0 (91-100 (No damages)),0 (91-100 (No damages)),0 (91-100 (No damages)),4 (6-10 (Severe damages)),3 (11-40 (Medium damages)),5 (0-5 (Death)),0 (91-100 (No damages)),0 (91-100 (No damages)),0 (91-100 (No damages)),5 (0-5 (Death)),5 (0-5 (Death)),5 (0-5 (Death)),4 (6-10 (Severe damages)),6,10,0 (91-100 (No damages))
COc1cc(OC)nc(Oc2ccccc2C=NOCC=Cc2ccc(C)cc2)n1 [compound 36],0 (91-100 (No damages)),0 (91-100 (No damages)),0 (91-100 (No damages)),5 (0-5 (Death)),4 (6-10 (Severe damages)),5 (0-5 (Death)),0 (91-100 (No damages)),0 (91-100 (No damages)),0 (91-100 (No damages)),4 (6-10 (Severe damages)),5 (0-5 (Death)),5 (0-5 (Death)),4 (6-10 (Severe damages)),4,0,1 (71-90 (Slight damages))
CCc1ccc(C=CCON=Cc2ccccc2Oc2nc(OC)cc(OC)n2)cc1 [compound 37],0 (91-100 (No damages)),0 (91-100 (No damages)),0 (91-100 (No damages)),5 (0-5 (Death)),4 (6-10 (Severe damages)),5 (0-5 (Death)),0 (91-100 (No damages)),0 (91-100 (No damages)),0 (91-100 (No damages)),4 (6-10 (Severe damages)),4 (6-10 (Severe damages)),5 (0-5 (Death)),4 (6-10 (Severe damages)),2,0,1 (71-90 (Slight damages))
COc1cccc(C=CCON=Cc2ccccc2Oc2nc(OC)cc(OC)n2)c1 [compound 38],0 (91-100 (No damages)),0 (91-100 (No damages)),0 (91-100 (No damages)),5 (0-5 (Death)),4 (6-10 (Severe damages)),5 (0-5 (Death)),0 (91-100 (No damages)),0 (91-100 (No damages)),0 (91-100 (No damages)),4 (6-10 (Severe damages)),5 (0-5 (Death)),5 (0-5 (Death)),4 (6-10 (Severe damages)),2,0,1 (71-90 (Slight damages))
COc1cc(OC)nc(Oc2ccccc2C=NOCC=Cc2ccccc2Br)n1 [compound 40],0 (91-100 (No damages)),0 (91-100 (No damages)),0 (91-100 (No damages)),4 (6-10 (Severe damages)),4 (6-10 (Severe damages)),5 (0-5 (Death)),0 (91-100 (No damages)),0 (91-100 (No damages)),0 (91-100 (No damages)),4 (6-10 (Severe damages)),5 (0-5 (Death)),4 (6-10 (Severe damages)),5 (0-5 (Death)),2,0,1 (71-90 (Slight damages))
